In patent publication US20230372337A1, “Combination Therapy Comprising an AXL Inhibitor” (BERGENBIO ASA, priority 2020, published 2023):

Legend:
Type I IFN related genes = experiment: RT2 Profiler PCR Array Mouse Type I Interferon Response on 4T1 tumors (Example 1 mechanistic study); assay type: in vivo, BALB/c mice; details: 4T1 tumors day 19; one animal per group compared to one of the controls
Procedure: RNA was extracted from snap frozen tumors using the RNEasy Microarray Tissue Mini kit from Qiagen following the manufacturer's instructions. As tumors contained Doxorubicin and powderizing them could expose personnel to harmful substances, the RNA was extracted in a closed system using the GentleMACS dissociator and M Tubes. Purity and concentration of RNA was measured using Nanodrop. cDNA was synthesized from RNA using the RT2 First Strand kit (Qiagen) according to the manufacturer's instructions. cDNA was mixed with RT2 SYBR Green Mastermix (Qiagen) and loaded into RT^2 Profiler™ PCR Array Mouse Type I Interferon Response, to analyze the expression of the 84 genes listed in Table 2. The plates were analysed using a Light Cycler 480 (Roche) and data were analysed using the Qiagen Data Analysis Centre and Graph Pad (Prism).
16 animals were used in the mechanistic study and were sacrificed day 19 post implantation, 3 days after Doxorubicin injection. […] The 4 animals from group A (no treatment) were used as controls. The fold changes of 4 animals of group B (Bemcentinib), group F (Doxorubicin) and group H (Bemcentinib+Doxorubicin) are expressed as compared to the control animals (group A).

EMT related genes = experiment: RT2 Profiler PCR Array Mouse Epithelial to Mesenchymal Transition (EMT) on 4T1 tumors (Example 2); assay type: in vivo, Balb/c mice; details: for Downregulated EMT genes (number): doxorubicin 1 mg/kg i.t., 72 hr timepoint; for EMT related genes significantly downregulated (number): doxorubicin 3 mg/kg i.t., 72 hours
Procedure: RNA was extracted from […] snap frozen tumors using the RNEasy Microarray Tissue Mini kit from Qiagen following the manufacturer's instructions. As tumors contained Doxorubicin and powderizing them could expose personnel to harmful substances, the RNA was extracted in a closed system using the GentleMACS dissociator and M Tubes. Purity and concentration of RNA was measured using Nanodrop. cDNA was synthesized from RNA using the RT^2 First Strand kit (Qiagen) according to the manufacturer's instructions. cDNA was mixed with RT^2 SYBR Green Mastermix (Qiagen) and loaded into RT Profiler™ PCR Array Mouse Type I Interferon Response or RT^2 Profiler™ PCR Array Mouse Epithelial to Mesenchymal Transition (EMT), analyzing the expression of 84 genes listed in Tables 9 and 10. The plates were analyzed using Light Cycler 480 (Roche) and data were analyzed using the Qiagen Data Analysis Centre and Graph Pad (Prism).
Quiagen RT^2 software was used to analyze all the samples from different groups. To be able to generate heatmaps and graph on fold change including error bars, the data have been analyzed manually with Graph Pad (Prism) when the Quiagen RT^2 software gave significant results between the different groups. For IFN type 1 response 1 mg/kg 48, 72 h and 3 mg/kg 48 h, were analyzed manually. For EMT, 1 mg/kg 48, 72 h, 3 mg/kg 72 h. When the data have been analyzed manually, the results are presented as histograms of mRNA fold changes. For the time points and doses analyzed by the software, the results are presented as tables.
EMT related gene expression in tumors was assessed by the RT^2 Profiler™ PCR Array for the 1 and 3 mg/kg doses at 48 and 72 hr timepoints. The highest dose and 24 hr timepoint samples were excluded based on the results outlined above.

global gene expression = experiment: RNA sequencing of 4T1 tumors 72 hours after doxorubicin i.t. (Example 2); assay type: in vivo, Balb/c mice
Procedure: FASTQ files were generated and quality controlled by the Genomic Core Facility. The trimmed samples were aligned to the reference genome using STAR. Gene expression quantification was achieved using feature Counts. Following QC, 8 and 7 samples from in vitro and in vivo studies respectively were identified as outliers and were excluded from subsequent analysis. RUVseq was used to remove hidden batch effect and/or other unwanted variations.
Read counts were analyzed for differential expression using the R package DESeq2. DESeq2 uses the raw read counts, applies an internal normalization method, and does estimation of library size, estimation of dispersion, and negative binomial generalized linear model fitting. The resulting differentially expressed gene lists (adjusted p-value cutoff=0.05) were then analyzed using Metascape to find the enriched terms.
RNA sequence analysis (RNAseq) was performed on tumor samples from mice sacrificed 72 hours after doxorubicin i.t. treatment (corresponding to group E and F at the 72 hr timepoint in Example 1).

Yumm 1.7 cells = experiment: Metastasis, tumor weight and spleen weight, Yumm1.7 model (Example 3); assay type: in vivo, C57Bl6 mice; details: average on the day of sacrifice
Procedure: Spleens were weighed and prepared for Cytof (cut into pieces of 2 mm and frozen in FBS 90%, DMSO 10% and stored at −80° C. prior to dissociation).
Tumors were weighed and cut in 3 along the long axis, one third was snap frozen in liquid nitrogen in 2 cryotubes per tumor, another third was prepared for Cytof (Cut into pieces of 2 mm and frozen in FBS 90%, DMSO 10% and stored at −80C prior to dissociation). The last piece was fixed in 4% formalin for 24 hours at room temperature and stored in 70% ethanol at 4° C. until embedding in paraffin.

IFN related genes (ISG) = experiment: qRTPCR of IFN related genes in Yumm1.7 tumors after sacrifice (Example 3); assay type: in vivo, C57Bl6 mice; details: 35 IFN related genes tested
Procedure: RNA was extracted from snap frozen tumors using the RNEasy Microarray Tissue Mini kit from Qiagen following the manufacturer's instructions. As tumors contained Doxorubicin and powderizing them could expose personnel to harmful substances, the RNA was extracted in a closed system using the GentleMACS dissociator and M Tubes. Purity and concentration of RNA was measured using Nanodrop. cDNA was synthesized from RNA using the RT^2 First Strand kit (Qiagen) according to the manufacturer's instructions. cDNA was mixed with SYBR Green Mastermix (Qiagen) and loaded into PCR plates with different probes against interferon related genes (listed in table 14). The plates were analyzed using Light Cycler 480 (Roche) and data were analyzed using Graph Pad (Prism).
Tumors from 4 animals treated either with Vehicle (group A), bemcentinib (Group B), Doxorubicin (group F) or bemcentinib+Doxorubicin (group H) were analyzed. Data are presented as fold changes compared to Vehicle treated mice. 35 IFN related genes (Table 14) were tested by RT PCR. Fold change was obtained compared to the control group (A). […]
A molecular mechanism focused study will be performed later; here samples were collected after sacrifice, meaning many days after treatment for some of the groups. The expression of 35 ISG as well, immune checkpoint related genes EMT related genes, Axl and Gas6 were analyzed by qRTPCR (Table 14).

Yumm1.7 cells = experiment: qRTPCR of IFN related genes in Yumm1.7 cells in vitro (Example 4); assay type: cell-based, mouse
[1] = test system: 4T1 mammary carcinoma cells; experiment: 4T1 syngeneic mammary carcinoma model, tumor growth and survival (Example 1); details: 4T1 model; for Effect on mouse survival: without the CPI treatment, 500 mm^3
Description: Exponentially growing 4T1 mammary carcinoma cells were harvested and re-suspended at 4×10^6 per ml in the mixture of serum-free RPMI medium and Matrigel (1:1). Only cells with over 95% viability have been used for in vivo study.
Each animal was weighed before cell implantation. Mice were anesthetized by inhalation of Sevoflurane. Anesthesia was induced at 8% Sevoflurane and maintained at 4%. Every mouse was placed on a heating pad and appropriately marked. Under a suitable depth of unconsciousness, animals were shaved, and the skin and surrounding region washed with Chlorhexidine (1 mg/ml) with use of sterile gauze. Injection was done orthotopically with one tumor per mouse with 0.05 ml of approximately 2×10^5 4T1 cells in serum-free RPMI medium/Matrigel (1:1).
2 randomizations were performed on 150 mice in 30 cages, with 5 animals per cage. The first randomization was performed on day 11 post implantation. The average of tumor volume of animals in each cage was determined. The average tumor volume in the cages was from 3.8 mm^3 to 19.7 mm^3. […] The first randomization was conducted with Latin square method based on the average tumor volume of all animals in each cage. […] Once the average tumor size reached 70 mm^3 for vehicle treated animals and 76 mm^3 for bemcentinib treated animals (tumor volume=L×W×W/2) the second randomization was performed prior to injection of chemotherapeutic agent (doxorubicin) on day 16. Randomization 2 was conducted with Latin square method based on average tumor volume of all animals in the bemcentinib group and in the vehicle group from randomization 1. […]
Tumor growth was measured with a digital hand held caliper at least twice weekly (once tumor emerges), prior to the first dosing, and then on the day of euthanasia.
When tumors reached an average of 7-170 mm^3, each animal received Doxorubicin (Dox) at a concentration of 0.5 mg/ml (groups C,D,F and H) in a total volume of 50 ul×TV/120 as indicated in Table 1. […] Total drug dose was calculated based on each animal's individual tumor size. […]

[2] = Yumm1.7 cells, doxorubicin 24 hours

Structure (SMILES) | Expression of IFN type I related genes (Type I IFN related genes) | Downregulated EMT genes (number) (EMT related genes) | EMT related genes significantly downregulated (number) (EMT related genes) | GO terms significantly downregulated compared to control (number) (global gene expression) | GO terms significantly upregulated compared to control (number) (global gene expression) | Interferon response (gene ontology) compared to control (global gene expression) | Spleen weight (Yumm 1.7 cells) | ISG significantly upregulated compared to control (number) (IFN related genes (ISG)) | Effect on the IFNB mediated response (Yumm1.7 cells; Yumm1.7 cells treated with IFNB) | Median survival (tumor volume 1000 mm^3) ([1]; days until tumor 1000 mm^3 or sacrifice due to severe symptoms) | Effect on mouse survival [1] | Interferon and immune response (gene ontology) compared to bern only group (global gene expression) | IFIT1 mRNA fold change (Yumm1.7 cells; [2]) | OAS2 mRNA fold change (Yumm1.7 cells; [2]) | RSAD2 mRNA fold change (Yumm1.7 cells; [2]) | ISG significantly upregulated compared to control (number) (Yumm1.7 cells; Yumm1.7 cells, doxorubicin 24 hours, 21 ISG tested)
Nc1nc(Nc2ccc3c(c2)CC[C@@H](N2CCCC2)CC3)nn1-c1cc2c(nn1)-c1ccccc1CCC2 [Bemcentinib, bemcentinib] | only a few upregulated genes | one | none | 20 | 2 | downregulated | 0.10 g | 4 | appeared to increase the IFNB mediated response, although not reaching significance | 34.5 days | do not show any effect |  |  |  |  | 
COc1cccc2c1C(=O)c1c(O)c3c(c(O)c1C2=O)C[C@@](O)(C(=O)CO)C[C@@H]3O[C@H]1C[C@H](N)[C@H](O)[C@H](C)O1 [Doxorubicin, doxorubicin] | increase of expression | one | none |  | 1 | No Interferon response | 0.17 g | No gene |  |  | do not show any effect | upregulated | 20 fold | 50 fold | 20 fold | 9
